The text below walks through data of patent US20190203253A1, “METHODS OF IDENTIFYING AND TREATING CANCER PATIENTS WITH AN EPHB6 DEFICIENCY” (University of Saskatchewan, priority 2016, published 2019).

Experiment [1] relates to co-cultured MDA-B6 and MDA-pc3 cells. As to the kind of experiment: Drug sensitivity assay with fluorescent co-cultured cells (flow cytometry), KX2-391. The note with it: GFP/RFP-labelled MDA-B6 and MDA-pc3 co-seeded in equal numbers, 25 nM, 72 h (FIGS. 4D, 4E). The experiment is classed as cell-based, human. As for the experimental part: FIG. 4. SL interaction between EPHB6 and SRC. A. MDA-pc3 and MDA-B6 cells were cultured in 96-well plates with the indicated concentrations of SU6656 or matching volumes of DMSO for 72 h. Cells were stained with resazurin and fluorescence was measured using a SpectraMax M5 plate reader to determine cell suppression. Five wells were analyzed per condition. […] B. MDA-pc3 and MDA-B6 cells were cultured in 96-well plates with the indicated concentrations of KX2-391 or matching volumes of DMSO for 72 h. Cells were stained with resazurin and fluorescence was measured using a SpectraMax M5 plate reader to determine cell suppression. Five wells were analyzed per condition. […] C. MDA-B6 and MDA-pc3 cells were transduced with lentivirus encoding pLD-GFP-Puro or pLD-RFP-Puro as indicated. Cells were selected with 2 μg/mL puromycin for 48 h, cultured in monolayer, and imaged by confocal microscopy at 100× magnification. […] Cells were collected and analyzed by flow cytometry and the FlowJo software. […] Cells were collected and analyzed by flow cytometry and the FlowJo software. […]
For color assays, MDA-B6-GFP and MDA-pc3-RFP, or MDA-B6-RFP and MDA-pc3-GFP cells were co-seeded in equal numbers in 12-well plates at indicated cell densities. […] Treated cells were collected and quantitated by flow cytometry. Results were analyzed using the FlowJo software (FLOWJO LLC, Ashland, Oreg., USA).
A general note: In flow cytometry, cells or beads pass a laser one at a time.

For experiment [2], the system named is prostate cancer. To be noted: reference [26]; cited from earlier work.

Consider `O=C(Cc1ccc(-c2ccc(OCCN3CCOCC3)cc2)cn1)NCc1ccccc1` [KX2-391], for which the “cell suppression in co-culture monitored by flow cytometry” value in experiment [1] is listed as “EPHB6-deficient cells are much less resistant to SRC inhibition”. Further, in experiment [2], the “clinical effect in phase II trials for prostate cancer” value is given as “relatively modest effect”.
